Legend:
Type in all cases: in vivo
Diabrotica balteata = test: Activity against Diabrotica balteata (corn root worm), maize sprouts sprayed; details: 96 h, application rate 200 ppm, L2 larvae, 4 days after infestation, in comparison to untreated samples, read-out: effect in at least one of the two categories (mortality or growth inhibition)
Procedure: Example B2: Activity Against Diabrotica Balteata (Corn Root Worm)
Maize sprouts placed onto an agar layer in 24-well microtiter plates were treated with aqueous test solutions prepared from 10'000 ppm DMSO stock solutions by spraying. After drying, the plates were infested with L2 larvae (6 to 10 per well). The samples were assessed for mortality and growth inhibition in comparison to untreated samples 4 days after infestation.

Plutella xylostella = test: Activity against Plutella xylostella (diamond back moth), artificial diet in 24-well plates; details: 192 h, application rate 200 ppm, eggs, 8 days after infestation, in comparison to untreated samples, read-out: effect in at least one of the two categories (mortality or growth inhibition)
Procedure: Example B6: Activity Against Plutella xylostella (Diamond Back Moth)
24-well microtiter plates with artificial diet were treated with aqueous test solutions prepared from 10'000 ppm DMSO stock solutions by pipetting. After drying, Plutella eggs were pipetted through a plastic stencil onto a gel blotting paper and the plate was closed with it. The samples were assessed for mortality and growth inhibition in comparison to untreated samples 8 days after infestation.

Spodoptera littoralis = test: Activity against Spodoptera littoralis (Egyptian cotton leaf worm), cotton leaf discs sprayed; details: foliar, 72 h, application rate 200 ppm, L1 larvae, 3 days after infestation, in comparison to untreated samples, read-out: control (at least one of mortality, anti-feedant effect, growth inhibition)
Procedure: Example B7: Activity Against Spodoptera littoralis (Egyptian Cotton Leaf Worm)
Cotton leaf discs were placed onto agar in 24-well microtiter plates and sprayed with aqueous test solutions prepared from 10'000 ppm DMSO stock solutions. After drying the leaf discs were infested with five L1 larvae. The samples were assessed for mortality, anti-feeding effect, and growth inhibition in comparison to untreated samples 3 days after infestation. Control of Spodoptera littoralis by a test sample is given when at least one of the categories mortality, anti-feedant effect, and growth inhibition is higher than the untreated sample.

Chilo suppressalis = test: Activity against Chilo suppressalis (striped rice stemborer), artificial diet in 24-well plates; details: 144 h, application rate 200 ppm, L2 larvae, 6 days after infestation, in comparison to untreated samples, read-out: control (at least one of mortality, anti-feedant effect, growth inhibition)
Procedure: Example B1: Activity Against Chilo suppressalis (Striped Rice Stemborer)
24-well microtiter plates with artificial diet were treated with aqueous test solutions prepared from 10'000 ppm DMSO stock solutions by pipetting. After drying, the plates were infested with L2 larvae (6-8 per well). The samples were assessed for mortality, anti-feeding effect, and growth inhibition in comparison to untreated samples 6 days after infestation. Control of Chilo suppressalis by a test sample is given when at least one of the categories mortality, anti-feedant effect, and growth inhibition is higher than the untreated sample.

Euschistus heros = test: Activity against Euschistus heros (neotropical brown stink bug), soybean leaves sprayed; details: 120 h, application rate 200 ppm, N2 nymphs, 5 days after infestation, in comparison to untreated samples, read-out: effect in at least one of the two categories (mortality or growth inhibition)
Procedure: Example B3: Activity Against Euschistus heros (Neotropical Brown Stink Bug)
Soybean leaves on agar in 24-well microtiter plates were sprayed with aqueous test solutions prepared from 10'000 ppm DMSO stock solutions. After drying the leaves were infested with N2 nymphs. The samples were assessed for mortality and growth inhibition in comparison to untreated samples 5 days after infestation.

Myzus persicae [1] = test: Activity against Myzus persicae (green peach aphid), feeding/contact activity, sunflower leaf discs; details: foliar, 144 h, application rate 200 ppm, aphid population of mixed ages, 6 days after infestation
Procedure: Example B4: Activity Against Myzus persicae (Green Peach Aphid) Feeding/Contact Activity
Sunflower leaf discs were placed onto agar in a 24-well microtiter plate and sprayed with aqueous test solutions prepared from 10'000 ppm DMSO stock solutions. After drying, the leaf discs were infested with an aphid population of mixed ages. The samples were assessed for mortality 6 days after infestation.

Myzus persicae [2] = test: Activity against Myzus persicae (green peach aphid), systemic activity, pea seedling roots in test solution; details: 144 h, test rate 24 ppm, aphid population of mixed ages, 6 days after placing seedlings into test solutions
Procedure: Example B5: Activity Against Myzus persicae (Green Peach Aphid) Systemic Activity
Roots of pea seedlings infested with an aphid population of mixed ages were placed directly into aqueous test solutions prepared from 10'000 DMSO stock solutions. The samples were assessed for mortality 6 days after placing seedlings into test solutions.

CCS(=O)(=O)c1cc(C2(C#N)CC2)cnc1-c1coc2cc(-c3ccc(F)cc3)ccc2c1=O [P.6, 1-[5-ethylsulfonyl-6-[7-(4-fluorophenyl)-4-oxo-chromen-3-yl]-3-pyridyl]cyclopropane-carbonitrile]
≥ 80%: percent effect (mortality or growth inhibition) at 200 ppm (Diabrotica balteata) | percent effect (mortality or growth inhibition) at 200 ppm (Plutella xylostella) | percent control (mortality, anti-feedant effect or growth inhibition) at 200 ppm (Spodoptera littoralis)

CCS(=O)(=O)c1cc(C2(C#N)CC2)cnc1-c1coc2cc(Br)ccc2c1=O [P.3, 1-[6-(7-bromo-4-oxo-chromen-3-yl)-5-ethylsulfonyl-3-pyridyl]-cyclopropanecarbonitrile]
≥ 80%: percent effect (mortality or growth inhibition) at 200 ppm (Diabrotica balteata) | percent effect (mortality or growth inhibition) at 200 ppm (Plutella xylostella) | percent control (mortality, anti-feedant effect or growth inhibition) at 200 ppm (Spodoptera littoralis) | percent control (mortality, anti-feedant effect or growth inhibition) at 200 ppm (Chilo suppressalis) | percent effect (mortality or growth inhibition) at 200 ppm (Euschistus heros)

CCS(=O)(=O)c1cc(C2(C#N)CC2)cnc1-c1coc2cc(I)ccc2c1=O [P.2, 1-[5-ethylsulfonyl-6-(7-iodo-4-oxo-chromen-3-yl)-3-pyridyl]cyclopropanecarbonitrile]
≥ 80%: percent effect (mortality or growth inhibition) at 200 ppm (Diabrotica balteata) | percent effect (mortality or growth inhibition) at 200 ppm (Plutella xylostella) | percent control (mortality, anti-feedant effect or growth inhibition) at 200 ppm (Spodoptera littoralis) | percent control (mortality, anti-feedant effect or growth inhibition) at 200 ppm (Chilo suppressalis) | percent effect (mortality or growth inhibition) at 200 ppm (Euschistus heros) | mortality at 200 ppm (Myzus persicae [1])

CCS(=O)(=O)c1cc(C2(C#N)CC2)cnc1-c1coc2cc(-c3cc(F)cc(F)c3)ccc2c1=O [P.7, 1-[6-[7-(3,5-difluorophenyl)-4-oxo-chromen-3-yl]-5-ethylsulfonyl-3-pyridyl]-cyclopropanecarbonitrile]
≥ 80%: percent effect (mortality or growth inhibition) at 200 ppm (Diabrotica balteata) | percent effect (mortality or growth inhibition) at 200 ppm (Plutella xylostella) | percent control (mortality, anti-feedant effect or growth inhibition) at 200 ppm (Spodoptera littoralis) | percent control (mortality, anti-feedant effect or growth inhibition) at 200 ppm (Chilo suppressalis) | percent effect (mortality or growth inhibition) at 200 ppm (Euschistus heros)

CCS(=O)(=O)c1cc(C2(C#N)CC2)cnc1-c1coc2cc(Cl)ccc2c1=O [P.1, 1-[6-(7-chloro-4-oxo-chromen-3-yl)-5-ethylsulfonyl-3-pyridyl]-cyclopropanecarbonitrile]
≥ 80%: percent effect (mortality or growth inhibition) at 200 ppm (Diabrotica balteata) | mortality at 24 ppm (Myzus persicae [2]) | percent effect (mortality or growth inhibition) at 200 ppm (Plutella xylostella) | percent control (mortality, anti-feedant effect or growth inhibition) at 200 ppm (Spodoptera littoralis) | percent control (mortality, anti-feedant effect or growth inhibition) at 200 ppm (Chilo suppressalis) | percent effect (mortality or growth inhibition) at 200 ppm (Euschistus heros) | mortality at 200 ppm (Myzus persicae [1])

CCS(=O)(=O)c1cc(C2(C#N)CC2)cnc1-c1coc2cc(F)ccc2c1=O [P.4, 1-[5-ethylsulfonyl-6-(7-fluoro-4-oxo-chromen-3-yl)-3-pyridyl]cyclopropane-carbonitrile]
≥ 80%: percent effect (mortality or growth inhibition) at 200 ppm (Diabrotica balteata) | mortality at 24 ppm (Myzus persicae [2]) | percent effect (mortality or growth inhibition) at 200 ppm (Plutella xylostella) | percent control (mortality, anti-feedant effect or growth inhibition) at 200 ppm (Spodoptera littoralis) | percent control (mortality, anti-feedant effect or growth inhibition) at 200 ppm (Chilo suppressalis) | percent effect (mortality or growth inhibition) at 200 ppm (Euschistus heros)

CCS(=O)(=O)c1cc(C2(C#N)CC2)cnc1-c1coc2cc(C3CC3)ccc2c1=O [P.5, 1-[6-(7-cyclopropyl-4-oxo-chromen-3-yl)-5-ethylsulfonyl-3-pyridyl]-cyclopropane-carbonitrile]
≥ 80%: percent effect (mortality or growth inhibition) at 200 ppm (Diabrotica balteata) | percent effect (mortality or growth inhibition) at 200 ppm (Plutella xylostella) | percent control (mortality, anti-feedant effect or growth inhibition) at 200 ppm (Spodoptera littoralis) | percent control (mortality, anti-feedant effect or growth inhibition) at 200 ppm (Chilo suppressalis) | percent effect (mortality or growth inhibition) at 200 ppm (Euschistus heros)
